The record followed here is patent US20250136991A1, “METHOD OF MAKING BONE AND CARTILAGE” (priority 2022, published 2025).

Peptide text beside a SMILES is read from it. * marks the point of attachment. Cbz = O=C(OCc1ccccc1)*

The subject of data set [1] is Mast4. The data set can be described thus: Mast4 degradation (cycloheximide chase) in Mast4-PDZ-overexpressing C3H10T1/2 cells with CHIR-99021. In kind it is cell-based, murine. The arrangement: dose or concentration left out as unconfirmed. Particulars: (FIG. 22d). An excerpt: FIGS. 22a-22e show Mast4 induction during osteogenesis and GSK-3b regulation of Mast4 expression. (a) The schematic representation of osteogenic differentiation of C3H10T1/2 cells. (b) The indicated C3H10T1/2 cells were differentiated into osteoblasts for 10 days, followed by Alizarin Red S staining. (c) C3H10T1/2 cells were differentiated into osteoblasts for 10 days, followed by western blot analysis for the expression of Mast4 and key Wnt signaling molecules. (d) Mast4-PDZ-overexpressing C3H10T1/2 cells were treated with cycloheximide (CHX; […]) for the indicated time in the absence or presence of CHIR-99021 ([…]). (e) The wild-type and GSK-3b-depleted HA-Mast4-PDZ-overexpressing C3H10T1/2 cells were treated with MG-132 ([…] for 4 h) and CHIR-99021 ([…]). (b-d) The representative result were obtained from at least three separate experiments.
For the immunoprecipitation assay, cell extracts were incubated with the indicated primary antibodies overnight at 4° C. Antibody-bound proteins were precipitated with Dynabeads Protein G (Invitrogen). Cells were lysed in a RIPA buffer containing protease inhibitor cocktail (Complete; Roche). Samples were separated by SDS-PAGE, followed by electrotransfer to polyvinylidene difluoride membranes (PVDF; Millipore). […] All signals were detected by Amersham Imager 600 (GE Healthcare Life Sciences).

Data set [2] relates to Mast4. The data set can be described thus: Mast4-PDZ expression in C3H10T1/2 cells transfected with Mast4-PDZ and GSK-3β, CHIR-99021 treatment (western blot). In kind it is cell-based, murine. Particulars: CHIR-99021 10 μM for 9 h (FIG. 4d).
Procedure: Cell lysates were immunoprecipitated with Flag antibody and immunoblotted with the indicated antibodies. k MC3T3-E1 cells were transfected with Mast4-PDZ WT and Δ632-636, followed by treatment of Wnt3a conditioned medium (2.5 h). l 6xOSE-Luc, Mast4-PDZ WT and Δ632-636 were transfected to C3H10T1/2 cells, followed by treatment of Wnt3a conditioned medium (18 h). […] Unpaired two-tailed Student's t test (P<0.05) with Benjamini-Hochberg correction for multiple tests was conducted for all statistical analyses. b-k The representative results were obtained from at least three independent experiments. TCL: total cell lysates.
For the immunoprecipitation assay, cell extracts were incubated with the indicated primary antibodies overnight at 4° C. Antibody-bound proteins were precipitated with Dynabeads Protein G (Invitrogen). Cells were lysed in a RIPA buffer containing protease inhibitor cocktail (Complete; Roche). Samples were separated by SDS-PAGE, followed by electrotransfer to polyvinylidene difluoride membranes (PVDF; Millipore). The membrane was blocked for 1 h at room temperature and incubated overnight at 4° C. with the primary antibodies. Horseradish peroxidase-conjugated antibodies (Millipore) were used as secondary antibodies. The peroxidase reaction products were visualized with WESTZOL (Intron). All signals were detected by Amersham Imager 600 (GE Healthcare Life Sciences).
In another data set the test system is Sox9. Kind of data set: Mast4-induced Sox9 degradation in C3H10T1/2 cells with MG-132 treatment (western blot). It is filed as cell-based, murine. Particulars: C3H10T1/2 cells transfected with Myc-Sox9 and Mast4-PDZ, MG-132 10 mM for 6 h (FIG. 16e). As for the experimental part:
(a) The indicated C3H10T1/2 cells were differentiated into chondrocytes for 6 days, followed by Sox9 ChIP on the Col2a1 gene. (b) 4xCol2a1-luc was transiently overexpressed in LPCX control and Mast4 PDZ-overexpressing C3H10T1/2 cells, followed by TGF-b1 treatment (3 ng/ml for 24 h). (a and b) Data are representative mean±SD of three independent experiments, each conducted in triplicate (n=3). Unpaired two-tailed Student's t test (P<0.05) with Benjamini-Hochberg correction for multiple tests was conducted for all statistical analyses. P values versus WT. (c) Full-length (HA-Mast4-FULL) and truncated Mast4 (HA-Mast4-PDZ) together with siMAST4 (50 pmol) that targets exogenous Mast4 (human) were co-transfected with Myc-Sox9 into C3H10T1/2 cells. Due to inefficient detection of full length Mast4 with HA antibody, Mast4 antibody which recognizes the C-terminus was used. (d) The indicated C3H10T1/2 cells were differentiated to chondrocytes for 6 days, followed by MG-132 ([…] for 6 h) treatment. Endogenous Sox9 was immunoprecipitated, and the complexes were analyzed by western blot using phospho-serine and Sox9 antibodies. […]
(§1) For the immunoprecipitation assay, cell extracts were incubated with the indicated primary antibodies overnight at 4° C. […] All signals were detected by Amersham Imager 600 (GE Healthcare Life Sciences).
(In general: A western blot detects proteins with antibodies after separation by electrophoresis.)

The target in a further data set is Mast4-PDZ P628A/Y634A (UniProt O15021).
Data set [3] has as its system Mast4. The data set can be described thus: Mast4 expression by western blot and RT-PCR in C3H10T1/2 cells treated with TGF-β1. In kind it is cell-based, murine. Particulars: TGF-β1 for 48 h (FIG. 3c). Here is the method:
(§2) FIGS. 3a-3g show TGF-β1-induced suppression of Mast4 enhances chondrogenesis by increasing Sox9-Smad3 association. a Sox9 and Smad3 were co-transfected to wild-type and Mast4-depleted C3H10T1/2 cells, followed by TGF-β1 treatment (5 ng/ml for 30 minutes). Sox9 was immunoprecipitated using HA antibody. Band intensities representing GFP-Smad3 and HA-Sox9 expression level in the immunoprecipitates were converted by densitometry using ImageJ software into the ratio of Smad3 to Sox9. Data are reported as mean±SD of three independent experiments (n=3). […]
Total RNA was prepared using EasyBlue (Boca Scientific). […] Quantitative real-time PCR was performed using Power SYBR Green PCR Master Mix (Applied Biosystems) on the QuantStudio 5 Real-Time PCR Instrument (Applied Biosystems). The mRNA levels of various genes were measured in triplicate and normalized with Gapdh. […]
as §1

In data set [4] the test system is Mast4 promoter. The data set can be described thus: Mast4 promoter luciferase assay in undifferentiated C3H10T1/2 cells. In kind it is cell-based, murine. Particulars: TGF-β1 5 ng/ml for 24 h (FIG. 3d). Here is the method: as §2, with “(n=3). Unpaired two-tailed Student's t test (P<0.05) was conducted for statistical analysis. b Smad3 ChIP on Col2a1 gene assay was performed in differentiating C3H10T1/2 cells for 6 days. c Mast4 expression was examined by western blot and RT-PCR of C3H10T1/2 cells treated with TGF-β1 for 48 h. d Luciferase assay was conducted in undifferentiated C3H10T1/2 cells.” for “(n=3).”
C3H10T1/2 cells were transiently transfected with 4xCol2a1-luc, Smad3/4-responsive promoter (CAGA)12-luc, SBE-luc, 6xOSE-luc, MAST4-promoter luciferase report plasmids, HA-MAST4 PDZ, Myc-Sox9 WT/S494A/S494D plasmids using polyethylenimine (Polysciences). […] The luciferase activities were analyzed using the Luciferase Assay System kit (Promega) according to the manufacturer's protocol. […]

Data set [5] relates to Mast4 promoter. Kind of data set: Smad3 ChIP assay on Mast4 gene in differentiating C3H10T1/2 cells. In kind it is cell-based, murine. Particulars: 6 days chondrogenic differentiation, TGF-β1 5 ng/ml for 48 h (FIG. 3e, FIG. 20). Here is the method: (§3) FIGS. 3a-3g show TGF-β1-induced suppression of Mast4 enhances chondrogenesis by increasing Sox9-Smad3 association. a Sox9 and Smad3 were co-transfected to wild-type and Mast4-depleted C3H10T1/2 cells, followed by TGF-β1 treatment (5 ng/ml for 30 minutes). Sox9 was immunoprecipitated using HA antibody. Band intensities representing GFP-Smad3 and HA-Sox9 expression level in the immunoprecipitates were converted by densitometry using ImageJ software into the ratio of Smad3 to Sox9. Data are reported as mean±SD of three independent experiments (n=3). Unpaired two-tailed Student's t test (P<0.05) was conducted for statistical analysis. b Smad3 ChIP on Col2a1 gene assay was performed in differentiating C3H10T1/2 cells for 6 days. c Mast4 expression was examined by western blot and RT-PCR of C3H10T1/2 cells treated with TGF-β1 for 48 h. d Luciferase assay was conducted in undifferentiated C3H10T1/2 cells. Vactosertib (0.5 μM) was pre-treated for 2 h prior to TGF-β1 (5 ng/ml) treatment for 24 h. e Smad3 ChIP assay on Mast4 gene was conducted in C3H10T1/2 cells undergoing chondrogenic differentiation for 6 days. […]

Data set [6] concerns Mast4. Kind of data set: Mast4 expression in human primary chondrocytes treated with TGF-β1. Particulars: TGF-β1 5 ng/ml for 24 h and 48 h (FIG. 3g). In kind it is cell-based. As for the experimental part:
as §3

Mast4-PDZ P628A/Y634A, sequence (O15021 whole entry P628A/Y634A, looked up): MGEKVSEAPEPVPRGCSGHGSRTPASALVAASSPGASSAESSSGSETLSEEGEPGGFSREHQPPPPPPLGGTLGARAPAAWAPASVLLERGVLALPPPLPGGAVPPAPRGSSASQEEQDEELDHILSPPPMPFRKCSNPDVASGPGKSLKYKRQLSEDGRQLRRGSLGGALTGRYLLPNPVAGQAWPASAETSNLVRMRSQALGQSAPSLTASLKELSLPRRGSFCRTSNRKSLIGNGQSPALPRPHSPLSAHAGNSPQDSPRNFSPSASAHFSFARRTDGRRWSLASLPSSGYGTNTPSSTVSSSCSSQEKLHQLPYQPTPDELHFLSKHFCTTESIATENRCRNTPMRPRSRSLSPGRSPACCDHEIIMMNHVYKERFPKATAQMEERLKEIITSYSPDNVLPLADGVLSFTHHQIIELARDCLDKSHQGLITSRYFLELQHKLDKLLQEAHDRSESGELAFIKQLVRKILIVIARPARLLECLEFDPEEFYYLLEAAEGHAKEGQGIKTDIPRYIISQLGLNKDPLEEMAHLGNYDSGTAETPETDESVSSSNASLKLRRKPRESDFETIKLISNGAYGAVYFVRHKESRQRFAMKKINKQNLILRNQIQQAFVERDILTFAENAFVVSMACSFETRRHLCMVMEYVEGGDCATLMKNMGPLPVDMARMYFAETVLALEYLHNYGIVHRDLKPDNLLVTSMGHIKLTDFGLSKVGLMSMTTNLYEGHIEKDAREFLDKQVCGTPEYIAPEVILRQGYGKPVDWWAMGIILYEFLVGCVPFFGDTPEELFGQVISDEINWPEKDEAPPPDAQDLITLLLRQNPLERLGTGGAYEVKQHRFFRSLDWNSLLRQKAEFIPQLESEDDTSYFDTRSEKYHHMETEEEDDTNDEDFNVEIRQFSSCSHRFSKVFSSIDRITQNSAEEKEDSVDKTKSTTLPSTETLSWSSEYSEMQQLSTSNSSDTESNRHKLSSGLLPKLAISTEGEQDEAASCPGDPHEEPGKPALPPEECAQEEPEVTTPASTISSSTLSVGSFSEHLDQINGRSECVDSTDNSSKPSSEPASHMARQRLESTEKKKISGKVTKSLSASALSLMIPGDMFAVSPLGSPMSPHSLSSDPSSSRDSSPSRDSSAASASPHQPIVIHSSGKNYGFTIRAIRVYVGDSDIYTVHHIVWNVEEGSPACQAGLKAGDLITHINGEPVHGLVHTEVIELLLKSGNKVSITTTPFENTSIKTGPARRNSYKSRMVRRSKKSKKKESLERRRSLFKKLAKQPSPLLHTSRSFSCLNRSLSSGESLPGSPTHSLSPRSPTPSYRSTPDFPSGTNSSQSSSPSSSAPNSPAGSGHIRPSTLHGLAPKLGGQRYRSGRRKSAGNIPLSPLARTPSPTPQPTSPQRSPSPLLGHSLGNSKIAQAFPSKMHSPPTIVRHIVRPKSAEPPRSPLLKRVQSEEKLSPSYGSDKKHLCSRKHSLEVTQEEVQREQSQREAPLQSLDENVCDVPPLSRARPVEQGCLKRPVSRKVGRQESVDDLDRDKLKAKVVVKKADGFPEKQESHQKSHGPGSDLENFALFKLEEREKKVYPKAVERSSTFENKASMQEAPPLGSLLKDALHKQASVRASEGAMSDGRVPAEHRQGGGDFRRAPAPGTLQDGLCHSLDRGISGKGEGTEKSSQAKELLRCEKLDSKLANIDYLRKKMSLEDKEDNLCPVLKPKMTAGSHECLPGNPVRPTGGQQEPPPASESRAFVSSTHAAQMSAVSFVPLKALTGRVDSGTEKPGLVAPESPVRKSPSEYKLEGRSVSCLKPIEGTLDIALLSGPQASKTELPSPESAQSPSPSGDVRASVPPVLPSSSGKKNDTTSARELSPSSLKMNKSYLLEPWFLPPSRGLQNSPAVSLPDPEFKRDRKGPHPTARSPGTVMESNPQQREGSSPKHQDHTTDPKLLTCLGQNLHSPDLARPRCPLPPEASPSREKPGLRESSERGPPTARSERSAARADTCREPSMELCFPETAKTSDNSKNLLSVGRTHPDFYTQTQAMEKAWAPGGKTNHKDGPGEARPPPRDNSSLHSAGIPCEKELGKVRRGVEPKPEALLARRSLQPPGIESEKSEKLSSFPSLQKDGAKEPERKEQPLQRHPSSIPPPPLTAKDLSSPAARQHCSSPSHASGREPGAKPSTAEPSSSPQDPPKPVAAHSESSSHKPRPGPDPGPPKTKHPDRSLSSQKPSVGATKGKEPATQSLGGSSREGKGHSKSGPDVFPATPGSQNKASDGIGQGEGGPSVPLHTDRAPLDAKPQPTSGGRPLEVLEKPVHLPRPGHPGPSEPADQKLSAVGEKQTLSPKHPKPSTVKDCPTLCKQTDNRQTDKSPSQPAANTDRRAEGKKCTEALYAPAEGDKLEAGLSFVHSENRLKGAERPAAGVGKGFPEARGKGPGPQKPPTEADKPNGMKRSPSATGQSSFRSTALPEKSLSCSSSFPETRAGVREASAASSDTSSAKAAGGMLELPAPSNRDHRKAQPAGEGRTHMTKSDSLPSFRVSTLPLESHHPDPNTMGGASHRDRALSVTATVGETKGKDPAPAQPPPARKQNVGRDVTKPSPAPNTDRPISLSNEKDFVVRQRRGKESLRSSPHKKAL

Consider `Cc1c[nH]c(-c2cnc(NCCNc3ccc(C#N)cn3)nc2-c2ccc(Cl)cc2Cl)n1` [GSK-3β inhibitor, CHIR-99021], for which the Mast4 degradation result with Mast4 [1] is listed as “significantly delayed”. Also, the Mast4 expression entry in the data set on Mast4 [2] is recorded as “dramatically increased”.

As for `CC(C)C[C@@H](C=O)NC(=O)[C@H](CC(C)C)NC(=O)[C@H](CC(C)C)NC(=O)OCc1ccccc1` [MG-132] (Cbz-Leu-Leu-Leu-aldehyde), in the data set with Sox9, the “Mast4-induced Sox9 degradation” value is “restored”.

Consider Smurf1, for which the “Smurf1-mediated Mast4 degradation” value with Mast4-PDZ P628A/Y634A is on record as “mutation of PY-like motif in the kinase domain of Mast4 (P628A/Y634A) prevented Smurf1-mediated Mast4 degradation”.

As to “TGF-β1: TGF-β1 protein (R&D Systems) used to treat cells”, the “mRNA and protein expression of Mast4” value with Mast4 [3] is “markedly suppressed”. Besides, in the data set on Mast4 promoter [4], the Mast4 promoter activity entry was “suppressed”. The “Smad3 occupancy at the Mast4 promoter” value in the data set on Mast4 promoter [5] is listed as “significantly increased”. The “Mast4 mRNA expression level” value in the data set on Mast4 [6] was “gradual reduction”.
